# Data published in patent publication US12398154B2, “Azaquinazoline pan-KRas inhibitors” (Mirati Therapeutics, Inc., priority 2020, dated 2025).
# pIC50: −log10 of the molar value.
# Assays:
# KRas G13D = biological target: T1, KRas G13D (Homo sapiens, UniProt P01116, G13D); experiment: KRas binding assay (TR-FRET displacement);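 also: One-hour room temperature incubation before TR-FRET reading, IC50 from a four-parameter curve fit to percent-of-control data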
# T1 construct: Biotinylated KRas (corresponding to amino acids 1-169, produced at Accelegan Inc.); biotin (biotinylated); purchased Accelegan Inc
# T1 sequence (P01116 1-169 isoform P01116-2 G13D): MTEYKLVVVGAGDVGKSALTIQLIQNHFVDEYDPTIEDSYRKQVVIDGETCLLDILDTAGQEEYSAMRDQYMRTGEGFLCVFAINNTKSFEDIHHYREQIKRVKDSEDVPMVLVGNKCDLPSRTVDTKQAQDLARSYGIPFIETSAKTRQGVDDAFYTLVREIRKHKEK
# Procedure: (§1) The ability of a compound to bind to KRas was measured using a TR-FRET displacement assay. […] After a 60-minute incubation at room temperature, the reaction was measured using a BMG LABTECH CLARIO star Plus via TR-FRET. […] The POC values were fit to a 4-parameter IC50 equation and the IC50 value reported.
# KRas Q61H = biological target: T2, KRas Q61H (Homo sapiens, UniProt P01116, Q61H); experiment: KRas binding assay (TR-FRET displacement);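 also: TR-FRET signal read after one hour at room temperature, IC50 derived by four-parameter fitting of percent-of-control values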
# T2 construct: Biotinylated KRas (corresponding to amino acids 1-169, produced at Accelegan Inc.); biotin (biotinylated); purchased Accelegan Inc
# T2 sequence (P01116 1-169 isoform P01116-2 Q61H): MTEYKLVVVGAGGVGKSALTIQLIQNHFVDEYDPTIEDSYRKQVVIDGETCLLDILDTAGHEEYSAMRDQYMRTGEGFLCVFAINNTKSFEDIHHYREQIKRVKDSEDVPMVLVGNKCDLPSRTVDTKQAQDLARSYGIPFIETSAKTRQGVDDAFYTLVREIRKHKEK
# Procedure: as §1
# KRas G12D = KRas G12D (Homo sapiens, UniProt P01116, G12D); experiment: biochemical;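 also: TR-FRET displacement binding assay on KRas, read after a one-hour incubation at room temperature, IC50 fitted from percent-of-control values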
# Chain of KRas G12D (P01116 1-169 isoform P01116-2 G12D): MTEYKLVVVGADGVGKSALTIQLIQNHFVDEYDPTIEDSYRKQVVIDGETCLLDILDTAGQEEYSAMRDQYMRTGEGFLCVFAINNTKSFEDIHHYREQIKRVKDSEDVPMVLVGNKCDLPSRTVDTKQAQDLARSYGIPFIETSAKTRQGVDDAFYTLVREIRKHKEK
# Procedure: as §1
# KRas G12V = KRas G12V (Homo sapiens, UniProt P01116, G12V); experiment: biochemical;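 also: KRas binding measured by TR-FRET displacement at room temperature, IC50 fitted from percent of control values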
# Chain of KRas G12V (P01116 1-169 isoform P01116-2 G12V): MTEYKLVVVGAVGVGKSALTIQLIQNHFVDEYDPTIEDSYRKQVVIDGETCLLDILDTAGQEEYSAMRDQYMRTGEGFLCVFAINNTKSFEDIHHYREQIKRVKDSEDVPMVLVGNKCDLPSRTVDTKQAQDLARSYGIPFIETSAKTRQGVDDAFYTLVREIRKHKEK
# Procedure: as §1
# KRas G12R = KRas G12R (Homo sapiens, UniProt P01116, G12R); experiment: biochemical;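 also: TR-FRET displacement assay of compound binding to KRas, read after one hour at room temperature, potency from a four-parameter fit of percent-of-control values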
# Chain of KRas G12R (P01116 1-169 isoform P01116-2 G12R): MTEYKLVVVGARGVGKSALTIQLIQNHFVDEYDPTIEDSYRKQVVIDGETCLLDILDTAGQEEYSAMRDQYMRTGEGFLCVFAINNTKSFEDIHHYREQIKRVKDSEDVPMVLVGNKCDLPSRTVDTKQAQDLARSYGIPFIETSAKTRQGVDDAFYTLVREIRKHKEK
# Procedure: as §1
# KRas G12A = KRas G12A (Homo sapiens, UniProt P01116, G12A); experiment: biochemical;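 also: binding to KRas measured by TR-FRET displacement after one hour at room temperature, IC50 from a four-parameter fit of percent-of-control values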
# Chain of KRas G12A (P01116 1-169 isoform P01116-2 G12A): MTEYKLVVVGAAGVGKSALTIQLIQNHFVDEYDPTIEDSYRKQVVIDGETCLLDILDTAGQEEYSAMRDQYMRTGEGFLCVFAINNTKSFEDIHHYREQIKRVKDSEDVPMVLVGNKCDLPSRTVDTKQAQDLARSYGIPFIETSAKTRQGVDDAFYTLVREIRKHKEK
# Procedure: as §1
# KRas G12S = KRas G12S (Homo sapiens, UniProt P01116, G12S); experiment: biochemical;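 also: TR-FRET displacement binding to KRas, read after one hour incubation at room temperature, IC50 from four-parameter fit of percent of control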
# Chain of KRas G12S (P01116 1-169 isoform P01116-2 G12S): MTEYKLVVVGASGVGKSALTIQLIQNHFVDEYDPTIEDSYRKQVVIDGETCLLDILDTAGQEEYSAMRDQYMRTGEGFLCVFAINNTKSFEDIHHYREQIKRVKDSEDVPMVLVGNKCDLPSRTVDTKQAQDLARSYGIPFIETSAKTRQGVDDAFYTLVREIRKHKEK
# Procedure: as §1
# KRas G12C = KRas G12C (Homo sapiens, UniProt P01116, G12C); experiment: biochemical;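 also: binding to KRas assessed by TR-FRET displacement after one hour incubation at room temperature, potency fitted from percent-of-control values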
# Chain of KRas G12C (P01116 1-169 isoform P01116-2 G12C): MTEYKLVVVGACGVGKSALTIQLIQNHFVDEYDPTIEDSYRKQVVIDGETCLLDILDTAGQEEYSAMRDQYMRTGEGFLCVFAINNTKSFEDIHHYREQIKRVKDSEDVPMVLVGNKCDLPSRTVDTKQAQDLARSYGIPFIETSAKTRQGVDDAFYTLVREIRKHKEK
# Procedure: as §1
# KRas WT = KRas WT (Homo sapiens, UniProt P01116); experiment: biochemical;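 also: binding to KRas read as TR-FRET displacement after a one-hour room-temperature incubation, IC50 derived from percent-of-control values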
# Chain of KRas WT (P01116 1-169 isoform P01116-2): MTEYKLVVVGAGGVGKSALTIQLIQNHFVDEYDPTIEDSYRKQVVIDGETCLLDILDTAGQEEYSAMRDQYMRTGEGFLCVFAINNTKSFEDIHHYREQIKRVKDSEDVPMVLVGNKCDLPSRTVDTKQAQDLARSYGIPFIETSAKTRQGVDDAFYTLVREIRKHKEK
# Procedure: as §1
SMILES,IC50 (KRas G13D),IC50 (KRas Q61H),pIC50 (KRas G12D),pIC50 (KRas G12V),pIC50 (KRas G12R),pIC50 (KRas G12A),pIC50 (KRas G12S),pIC50 (KRas G12C),pIC50 (KRas WT)
CCc1c(F)ccc2cc(O)cc(-c3ncc4c(N5CCCCC5)nc(OC[C@@H]5C[C@@H](O)CN5C)nc4c3F)c12 [Example 6],21 nM,23 nM,7.54,7.72,7.85,7.80,7.70,7.74,7.66
"CC1(O)CCCN(c2nc(OCC34CCCN3CCC4)nc3c(F)c(-c4cccc5cccc(F)c45)ncc23)C1 (stereo not shown) [Example 17, 1-(8-fluoro-7-(8-fluoronaphthalen-1-yl)-2-((hexahydro-1H-pyrrolizin-7a-yl)methoxy)pyrido[4,3-d]pyrimidin-4-yl)-3-methylpiperidin-3-ol]",925 nM,1860 nM,6.13,5.83,5.65,6.02,6.04,5.93,6.02
"Fc1c(-c2cccc3cccc(F)c23)ncc2c(N3C[C@@H]4CC[C@@H](C4)C3)nc(OCC34CCCN3CCC4)nc12 [Example 18, 4-((1R,5S)-3-azabicyclo[3.2.1]octan-3-yl)-8-fluoro-7-(8-fluoronaphthalen-1-yl)-2-((hexahydro-1H-pyrrolizin-7a-yl)methoxy)pyrido[4,3-d]pyrimidine]",9370 nM,13200 nM,4.62,5.35,5.17,5.12,5.30,5.06,5.17
"Fc1c(-c2cccc3cccc(F)c23)ncc2c(N3CCCCC3)nc(OCC34CCCN3CCC4)nc12 [Example 21, 8-fluoro-7-(8-fluoronaphthalen-1-yl)-2-((hexahydro-1H-pyrrolizin-7a-yl)methoxy)-4-(piperidin-1-yl)pyrido[4,3-d]pyrimidine]",12600 nM,19400 nM,4.83,5.01,4.97,4.90,4.73,4.90,4.94
"O=C1CC(CNc2nc(OCC34CCCN3CCC4)nc3c(F)c(-c4cccc5cccc(F)c45)ncc23)CN1 (stereo not shown) [Example 29, 4-(((8-fluoro-7-(8-fluoronaphthalen-1-yl)-2-((hexahydro-1H-pyrrolizin-7a-yl)methoxy)pyrido[4,3-d]pyrimidin-4-yl)amino)methyl)pyrrolidin-2-one]",8190 nM,13900 nM,4.69,5.71,5.36,5.21,5.51,5.36,5.23
"Fc1c(-c2cccc3cccc(F)c23)ncc2c(N3CCCC(c4nc[nH]n4)C3)nc(OCC34CCCN3CCC4)nc12 (stereo not shown) [Example 30, 4-(3-(1H-1,2,4-triazol-3-yl)piperidin-1-yl)-8-fluoro-7-(8-fluoronaphthalen-1-yl)-2-((hexahydro-1H-pyrrolizin-7a-yl)methoxy)pyrido[4,3-d]pyrimidine]",2000 nM,2900 nM,6.68,6.10,5.90,5.75,5.84,5.89,5.76
"CC1(CNc2nc(OCC34CCCN3CCC4)nc3c(F)c(-c4cccc5cccc(F)c45)ncc23)CNC(=O)C1 (stereo not shown) [Example 35, 4-(((8-fluoro-7-(8-fluoronaphthalen-1-yl)-2-((hexahydro-1H-pyrrolizin-7a-yl)methoxy)pyrido[4,3-d]pyrimidin-4-yl)amino)methyl)-4-methylpyrrolidin-2-one]",1660 nM,4010 nM,4.92,5.60,5.79,–,–,–,–
"O=C1CCC2(CCCN(c3nc(OCC45CCCN4CCC5)nc4c(F)c(-c5cccc6cccc(F)c56)ncc34)C2)C1 (stereo not shown) [Example 46, 7-(8-fluoro-7-(8-fluoronaphthalen-1-yl)-2-((hexahydro-1H-pyrrolizin-7a-yl)methoxy)pyrido[4,3-d]pyrimidin-4-yl)-7-azaspiro[4.5]decan-2-one]",8790 nM,18500 nM,4.85,4.62,4.65,–,–,–,–
"Fc1c(-c2cccc3cccc(F)c23)ncc2c(N3CCCC4(CCC(F)C4)C3)nc(OCC34CCCN3CCC4)nc12 (stereo not shown) [Example 48, 8-fluoro-4-(2-fluoro-7-azaspiro[4.5]decan-7-yl)-7-(8-fluoronaphthalen-1-yl)-2-((hexahydro-1H-pyrrolizin-7a-yl)methoxy)pyrido[4,3-d]pyrimidine]",16000 nM,19900 nM,4.74,4.69,4.62,–,–,–,–
"CCc1c(F)ccc2cc(O)cc(-c3ncc4c(NCc5c[nH]c6ncccc56)nc(OC[C@@]56CCCN5C[C@H](F)C6)nc4c3F)c12 [Example 62, 4-(4-(((1H-pyrrolo[2,3-b]pyridin-3-yl)methyl)amino)-8-fluoro-2-(((2R,7aS)-2-fluorohexahydro-1H-pyrrolizin-7a-yl)methoxy)pyrido[4,3-d]pyrimidin-7-yl)-5-ethyl-6-fluoronaphthalen-2-ol]",3 nM,≤ 2 nM,8.52,≥ 8.70,≥ 8.70,–,–,–,–
"CC1(O)COCCN(c2nc(OCC34CCCN3CCC4)nc3c(F)c(-c4cccc5cccc(F)c45)ncc23)C1 (stereo not shown) [Example 64, 4-(8-fluoro-7-(8-fluoronaphthalen-1-yl)-2-((hexahydro-1H-pyrrolizin-7a-yl)methoxy)pyrido[4,3-d]pyrimidin-4-yl)-6-methyl-1,4-oxazepan-6-ol]",1360 nM,1550 nM,6.25,5.87,5.59,5.89,5.94,5.98,6.00
"Nc1ncccc1CNc1nc(OCC23CCCN2CCC3)nc2c(F)c(-c3cccc4cccc(F)c34)ncc12 [Example 70, N-((2-aminopyridin-3-yl)methyl)-8-fluoro-7-(8-fluoronaphthalen-1-yl)-2-((hexahydro-1H-pyrrolizin-7a-yl)methoxy)pyrido[4,3-d]pyrimidin-4-amine]",11700 nM,10800 nM,4.85,6.40,6.67,6.39,6.38,6.65,5.54
"O=C1CC2(CCN(c3nc(OCC45CCCN4CCC5)nc4c(F)c(-c5cccc6cccc(F)c56)ncc34)CC2)N1 [Example 77, 7-(8-fluoro-7-(8-fluoronaphthalen-1-yl)-2-((hexahydro-1H-pyrrolizin-7a-yl)methoxy)pyrido[4,3-d]pyrimidin-4-yl)-1,7-diazaspiro[3.5]nonan-2-one]",1210 nM,1910 nM,4.89,5.87,5.66,5.97,5.93,5.79,5.85
"Nc1cc2n(n1)CCCN(c1nc(OCC34CCCN3CCC4)nc3c(F)c(-c4cccc5cccc(F)c45)ncc13)C2 [Example 78, 5-(8-fluoro-7-(8-fluoronaphthalen-1-yl)-2-((hexahydro-1H-pyrrolizin-7a-yl)methoxy)pyrido[4,3-d]pyrimidin-4-yl)-5,6,7,8-tetrahydro-4H-pyrazolo[1,5-a][1,4]diazepin-2-amine]",3800 nM,3300 nM,6.17,5.81,5.75,5.66,5.91,5.90,5.57
"Fc1c(-c2cccc3cccc(F)c23)ncc2c(NCc3ccc4[nH]cnc4c3)nc(OCC34CCCN3CCC4)nc12 [Example 80, N-((1H-benzo[d]imidazol-5-yl)methyl)-8-fluoro-7-(8-fluoronaphthalen-1-yl)-2-((hexahydro-1H-pyrrolizin-7a-yl)methoxy)pyrido[4,3-d]pyrimidin-4-amine]",6310 nM,10700 nM,4.53,5.80,5.83,5.80,5.59,5.90,5.16
"OC1CC2CC1CN(c1nc(OCC34CCCN3CCC4)nc3c(F)c(-c4cccc5cccc(F)c45)ncc13)C2 (stereo not shown) [Example 81, 3-(8-fluoro-7-(8-fluoronaphthalen-1-yl)-2-((hexahydro-1H-pyrrolizin-7a-yl)methoxy)pyrido[4,3-d]pyrimidin 4-yl)-3-azabicyclo[3.2.1]octan-6-ol]",860 nM,1170 nM,5.45,6.10,5.98,6.12,6.27,6.05,6.06
"CCc1c(F)ccc2cc(O)cc(-c3ncc4c(NCc5n[nH]cc5C)nc(OC[C@@]56CCCN5C[C@H](F)C6)nc4c3F)c12 [Example 161, 5-ethyl-6-fluoro-4-(8-fluoro-2-(((2R,7aS)-2-fluorohexahydro-1H-pyrrolizin-7a-yl)methoxy)-4-(((4-methyl-1H-pyrmzol-3-yl)methyl)amino)pyrido[4,3-d]pyrimidin-7-yl)naphthalen-2-ol]",16 nM,17 nM,7.17,8.15,8.05,–,7.82,8.15,7.70
